According to US10611740B2, “Aryl dihydro-2H-benzo[b][1,4]oxazine sulfonamide and related compounds for use as agonists of RORγ and the treatment of disease” (Lycera Corporation, priority 2015, dated 2020):

Tests used:
RORγ-LBD = target: T1, RORγ-LBD (Homo sapiens, UniProt P51449); assay: RORγ-Ligand Binding Domain (LBD) TR-FRET Assay; assay type: biochemical;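 for TR-FRET Assay Max Response: 665/615 nm ratio relative to signal without ursolic acid or compound set at 100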
T1 construct: made in house; host or cells: SF9 cells (baculovirus)
T1 sequence (P51449 269-508 limits assumed): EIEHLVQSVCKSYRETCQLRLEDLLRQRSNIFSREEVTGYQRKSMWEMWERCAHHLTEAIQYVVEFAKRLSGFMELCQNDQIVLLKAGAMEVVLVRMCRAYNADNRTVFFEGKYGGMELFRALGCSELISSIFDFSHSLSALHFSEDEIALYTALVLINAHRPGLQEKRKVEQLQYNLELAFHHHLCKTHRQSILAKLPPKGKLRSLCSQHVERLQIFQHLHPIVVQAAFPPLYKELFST
Method in brief: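 TR-FRET read-out using a biotin-tagged SRC1 coactivator LXXLL peptide (200 nM final), with the antagonist ursolic acid present at 2 μM final. Receptor is His-tagged LBD expressed in SF9 cells, ~3 nM final in pH 7.0 Tris/KCl/EDTA/DTT/BSA buffer; compounds in 1% DMSO final.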

Gal4-RORγ-LBD = target: T2, Gal4-RORγ-LBD (Homo sapiens, UniProt P51449); assay: Gal4-RORγ Luciferase Reporter Assay in HEK-293T Cells; assay type: cell-based; details: HEK-293 cells
T2 construct: expressed in transfected cells; host or cells: HEK-293 cells (pcDNA3.1neo plasmid)
T2 sequence (P51449 269-508 limits assumed): T1 sequence (P51449 269-508 limits assumed)
Method in brief: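 Luminescence read-out (One-Glo, 10 min RT) after overnight compound exposure at 37 °C in HEK-293 cells carrying Gal4-RORγ-LBD plus a Gal4-luciferase reporter, in the presence of 2 μM ursolic acid. Max Response is the upper plateau from a 4-parameter logistic fit, normalized to untreated signal = 100.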

[1] = luciferase reporter, with 2 μM ursolic acid

EC50 (RORγ-LBD) [nM]	EC50 (Gal4-RORγ-LBD; [1]) [nM]	EC50 (Gal4-RORγ-LBD; 2 μM ursolic acid) [nM]	Structure (SMILES)	TR-FRET Assay Max Response (RORγ-LBD)	Gal4-RORγ Assay Max Response (Gal4-RORγ-LBD; [1])	Gal4-RORγ Assay Max Response (Gal4-RORγ-LBD; 2 μM ursolic acid)
< 500	< 500	–	COc1cc(F)cc(-c2ccc3c(c2)N(S(=O)(=O)c2cccc(C(F)(F)F)c2)C[C@H](CCc2n[nH]c(=O)o2)O3)c1F [Compound 28G, (S)-5-(2-(6-(2,5-difluoro-3-methoxyphenyl)-4-((3-(trifluoromethyl)phenyl)sulfonyl)-3,4-dihydro-2H-benzo[b][1,4]-oxazin-2-yl)ethyl)-1,3,4-oxadiazol-2(3H)-one]	**** (The symbol “****” indicates a value greater than 200)	** (The symbol “**” indicates a value in the range of greater than 90 to 150)	–
< 500	< 500	–	O=C(CC[C@H]1CN(S(=O)(=O)c2cccc(C(F)(F)F)c2)c2cc(-c3cccc(Cl)c3)ccc2O1)N1CCS(=O)(=O)CC1 [Compound 23A, (S)-3-(6-(3-chlorophenyl)-4-((3-(trifluoromethyl)phenyl)sulfonyl)-3,4-dihydro-2H-benzo[b][1,4]-oxazin-2-yl)-1-(1,1-dioxidothio-morpholino)propan-1-one]	**** (The symbol “****” indicates a value greater than 200)	** (The symbol “**” indicates a value in the range of greater than 90 to 150)	–
< 500	500 to 5000	–	COc1ccc(-c2ccc3c(c2)N(S(=O)(=O)c2cccc(C(F)(F)F)c2)C[C@H](CCC(=O)O)O3)cc1 [Compound 2U, (S)-3-(6-(4-methoxyphenyl)-4-((3-(trifluoromethyl)phenyl)-sulfonyl)-3,4-dihydro-2H-benzo[b][1,4]oxazin-2-yl)propanoic acid]	*** (The symbol “***” indicates a value in the range of greater than 150 to 200)	* (The symbol “*” indicates a value in the range of 25 to 90)	–
< 500	< 500	–	O=C(NC[C@H]1CN(S(=O)(=O)c2cccc(C(F)(F)F)c2)c2cc(-c3cc(F)ccc3F)ccc2O1)C1CCCC1 [Compound 30AZ, (S)-N-((6-(2,5-difluorophenyl)-4-((3-(trifluoromethyl)phenyl)-sulfonyl)-3,4-dihydro-2H-benzo-[b][1,4]oxazin-2-yl)methyl)-cyclopentanecarboxamide]	**** (The symbol “****” indicates a value greater than 200)	** (The symbol “**” indicates a value in the range of greater than 90 to 150)	–
< 500	–	< 500	O=C(O)[C@@]1(C[C@H]2CN(S(=O)(=O)c3cccc(C(F)(F)F)c3)c3cc(-c4cc(F)cc(OC(F)F)c4)ccc3O2)CCNC1=O [Compound 74, (R)-3-(((S)-6-(3-(difluoromethoxy)-5-fluorophenyl)-4-((3-(trifluoromethyl)phenyl)sulfonyl)-3,4-dihydro-2H-benzo[b][1,4]oxazin-2-yl)methyl)-2-oxopyrrolidine-3-carboxylic acid]	** (The symbol “**” indicates a value in the range of greater than 90 to 150)	–	** (The symbol “**” indicates a value in the range of greater than 90 to 150)
< 500	–	500 to 5000	O=C(O)C1(C[C@H]2CN(S(=O)(=O)c3cccc(C(F)(F)F)c3)c3cc(-c4cc(F)cc(OC(F)F)c4)ccc3O2)CCC1 [Compound 32BH, (S)-1-((6-(3-(difluoromethoxy)-5-fluorophenyl)-4-((3-(trifluoro-methyl)phenyl)sulfonyl)-3,4-dihydro-2H-benzo[b][1,4]oxazin-2-yl)methyl)cyclobutane-l-carboxylic acid]	*** (The symbol “***” indicates a value in the range of greater than 150 to 200)	–	** (The symbol “**” indicates a value in the range of greater than 90 to 150)
< 500	500 to 5000	–	COc1cc(-c2ccc3c(c2)N(S(=O)(=O)c2cccc(C(F)(F)F)c2)C[C@H](CCC(=O)O)O3)ccn1 [Compound 4D, (S)-3-(6-(2-methoxypyridin-4-yl)-4-((3-(trifluoromethyl)-phenyl)sulfonyl)-3,4-dihydro-2H-benzo[b][1,4]oxazin-2-yl)propanoic acid]	*** (The symbol “***” indicates a value in the range of greater than 150 to 200)	* (The symbol “*” indicates a value in the range of 25 to 90)	–
< 500	–	< 500	CC(C)(C[C@H]1CN(S(=O)(=O)c2cccc(C(F)(F)F)c2)c2cc(-c3cccc(C(F)F)n3)ccc2O1)C(=O)O [Compound 32AK, (S)-3-(6-(6-(difluoromethyl)-pyridin-2-yl)-4-((3-(trifluoro-methyl)phenyl)sulfonyl)-3,4-dihydro-2H-benzo[b][1,4]oxazin-2-yl)-2,2-dimethylpropanoic acid]	** (The symbol “**” indicates a value in the range of greater than 90 to 150)	–	* (The symbol “*” indicates a value in the range of 25 to 90)
< 500	–	< 500	COc1cc(S(=O)(=O)N2C[C@H](CNS(=O)(=O)N(C)CCO)Oc3ccc(-c4cc(F)ccc4F)cc32)ccc1F [Compound 45D, ([[(2S)-6-(2,5-difluorophenyl)-4-[[4-fluoro-3-methoxy-benzene]-sulfonyl]-3,4-dihydro-2H-1,4-benzoxazin-2-yl]methyl]sulfamoyl)-(N-methyl-N-2-hydroxyethyl)-amine]	*** (The symbol “***” indicates a value in the range of greater than 150 to 200)	–	* (The symbol “*” indicates a value in the range of 25 to 90)
< 500	–	< 500	COc1cc(S(=O)(=O)N2C[C@H](CNS(=O)(=O)N3CC[C@H](O)C3)Oc3ccc(-c4cc(F)ccc4F)cc32)ccc1F [Compound 45E, (S)-N-(((S)-6-(2,5-difluoro-phenyl)-4-((4-fluoro-3-methoxyphenyl)sulfonyl)-3,4-dihydro-2H-benzo[b][1,4]oxazin-2-yl)methyl)-3-hydroxy-pyrrolidine-1-sulfonamide]	*** (The symbol “***” indicates a value in the range of greater than 150 to 200)	–	** (The symbol “**” indicates a value in the range of greater than 90 to 150)
< 500	< 500	–	O=C(O)C1CCN(C(=O)CC[C@H]2CN(S(=O)(=O)c3cccc(C(F)(F)F)c3)c3cc(-c4cccc(F)c4F)ccc3O2)CC1 [Compound 23P, (S)-1-(3-(6-(2,3-difluorophenyl)-4-((3-(trifluoromethyl)-phenyl)sulfonyl)-3,4-dihydro-2H-benzo[b][1,4]oxazin-2-yl)propanoyl)piperidine-4-carboxylic acid]	**** (The symbol “****” indicates a value greater than 200)	*** (The symbol “***” indicates a value in the range of greater than 150 to 200)	–
< 500	–	< 500	O=C(NC[C@H]1CN(S(=O)(=O)c2cccc(C(F)(F)F)c2)c2cc(-c3cccc(F)c3Cl)ccc2O1)C1CC1 [Compound 30CF, (S)-N-((6-(2-chloro-3-fluoro-phenyl)-4-((3-(trifluoromethyl)-phenyl)sulfonyl)-3,4-dihydro-2H-benzo[b][1,4]oxazin-2-yl)methyl)cyclopropanecarbox-amide]	**** (The symbol “****” indicates a value greater than 200)	–	** (The symbol “**” indicates a value in the range of greater than 90 to 150)
< 500	< 500	–	O=C(O)C1CCN(C(=O)CC[C@H]2CN(S(=O)(=O)c3cccc(C(F)(F)F)c3)c3cc(-c4cccc(F)c4F)cc(F)c3O2)CC1 [Compound 23I, (S)-1-(3-(6-(2,3-difluorophenyl)-8-fluoro-4-((3-(trifluoromethyl)phenyl)sulfonyl)-3,4-dihydro-2H-benzo[b][1,4]oxazin-2-yl)propanoyl)piperidine-4-carboxylic acid]	**** (The symbol “****” indicates a value greater than 200)	** (The symbol “**” indicates a value in the range of greater than 90 to 150)	–
< 500	< 500	–	COc1cc(S(=O)(=O)N2C[C@H](CNS(=O)(=O)N(C)C)Oc3ccc(-c4cc(F)ccc4F)cc32)ccc1F [Compound 45C, ([[(2S)-6-(2,5-difluorophenyl)-4-[[4-fluoro-3-methoxy-benzene]-sulfonyl]-3,4-dihydro-2H-1,4-benzoxazin-2-yl]methyl]sulfamoyl)-(dimethyl)amine]	*** (The symbol “***” indicates a value in the range of greater than 150 to 200)	* (The symbol “*” indicates a value in the range of 25 to 90)	–
< 500	–	< 500	O=C(O)C1(C[C@H]2CN(S(=O)(=O)c3cccc(C(F)(F)F)c3)c3cc(-c4cc(F)ccc4Cl)ccc3O2)CCOCC1 [Compound 78D, (S)-4-((6-(2-chloro-5-fluoro-phenyl)-4-((3-(trifluoromethyl)-phenyl)sulfonyl)-3,4-dihydro-2H-benzo[b][1,4]oxazin-2-yl)methyl)tetrahydro-2H-pyran-4-carboxylic acid]	** (The symbol “**” indicates a value in the range of greater than 90 to 150)	–	*** (The symbol “***” indicates a value in the range of greater than 150 to 200)
